The text below walks through data of patent US20180064662A1 (THE GENERAL HOSPITAL CORPORATION, priority 2015, published 2018).

The data set concerns AK4.4 tumors. Briefly: Orthotopic AK4.4 PDAC model in obese FVB mice, metformin in drinking water. In kind it is in vivo, mouse. The source says: Wild-type (WT) C57BL/6 and FVB male mice were originally obtained from The Jackson Laboratory (The Jackson Laboratory, Bar Harbor, Me.) and bred and maintained in our defined-flora animal facility. Mice were maintained on a 12-h light-dark cycle in a temperature-controlled barrier facility, with ad libitum access to food and acidified water. To generate obese/diabetic mouse models, mice (6-weeks old) were given a 60% fat diet (D12492, Research Diets, New Brunswick, N.J.) for 10 weeks as previously described (49-51). For tumor experiments, the PAN02 and AK4.4 syngeneic PDAC models were used in C57BL/6 and FVB immunocompetent mice, respectively. PAN02 cells (SMAD4-m174) (52) were obtained from ATCC. AK4.4 cells (KrasG12D and p53^+/−) were isolated from mice generating spontaneous pancreatic tumors (Pt∫1-Cre/LSL-Kras^G12D/p53^Loxi−) (53). Orthotopic pancreatic tumors were generated by implanting a small piece (1 mm^3) of viable tumor tissue (from a source tumor in a separate donor animal) into the pancreas of a 6-8- week-old male lean or obese FVB (AK4.4 model) or C57BL/6 (PAN02 model) mouse. Both tumor models used were authenticated by IDEXX Laboratories. (PAN02: IDEXX RADIL Case # 22366-2013. AK4.4: IDEXX RADIL Case # 27818-2014).
At day 21, plasma and tumor samples were collected, and tumors were weighed and processed for further analysis.
This can be translated to the human equivalent dose by using the Reagan-Shaw method (54). According to the formula for the human equivalent dose [(mg/kg)=animal dose (mg/kg)×animal (km)/human (km). Km for a 60 kg human adults equals 37 and for a 20 g mouse equals 3], the human equivalent of murine dose of 300 mg/kg is 1459 mg for an average sized 60 kg adult human. Therefore, the selected dose in the present study is within the safe therapeutic range recorded in humans. […] This was compatible with the therapeutic periods reported in previous studies (55, 56). […] The amount added to each animal cage was calculated based on the average daily water intake for that cage during a period of 2 weeks prior to treatment initiation, and adjusted every three days based on water consumption and body weight of the animals. […] For in vitro experiments, a range of concentration from 0.05 to 25 mM depending on the cell line used, as discussed below.
Immediately following excision, tumor tissue was snap frozen and stored in liquid nitrogen. Total RNA was extracted and relative gene expression for macrophage M1/M2 markers was determined using a Sybr-green based standard protocol. In addition, total RNA was extracted and relative gene expression was determined using RT2 Profiler PCR Arrays system (Qiagen) on a Stratagene Mx3000P QPCR System using pre-made pathway-focused arrays (“Fibrosis”-Cat. Number: PAMM011Z; “Epithelial to Mesenchymal Transition (EMT)”-Cat. Number: PAMM090Z; “TGF-β signaling targets”-PAMM235Z; “Extracellular Matrix & Adhesion Molecules”-Cat. Number: PAMM013Z; and “Common cytokines ”-Cat. Number: PAMM021Z).
Each tumor sample was homogenized directly in lysis buffer for protein extraction. 20 ug of denatured protein per sample was loaded on 7%, 10% and 12% SDS-polyacrylamide gels. Antibodies used: phospho-p38 MAPKT^180/Y182 and p38; phospho-JNK (SAPK/JNK)^Thr183/Tyr185 and JNK; phospho-AKT^Ser473 and AKT, phospho-ERK(p44/42 MAPK)^T202/Y204 and ERK; phospho-NF-κB^Ser536 and NK-κB; p65^Ser536; phospho-Smad2^Ser465/467 and Smad2; phospho-IGF-I Receptor β^Tyr1135 and IGF; Phospho-IRS-1^Ser612 and IRS; IR; phpspho-stat3^Tyr705 and stat3; Phospho-AMPKα^Thr172 and Ampkα; phospho-Ampkβ^Ser108 and Ampk; phospho-ACC^Ser79 and ACC; Phospho-PDGF Receptor β^Tyr751 and PDGF Receptor β and snail, c-cadherin and vimentin, TGF-β, β-catenin, twist, LC3B. […]

Setting [1] is: obese FVB mice, metformin 300 mg/Kg.
The mark [2] stands for this setting: obese FVB mice, metformin 300 mg/Kg in drinking water.
[3] abbreviates: obese FVB mice, metformin 300 mg/Kg in drinking water, day 7 to 21.

As to `CN(C)C(=N)N=C(N)N` [metformin, 3-(diaminomethylidene)-1,1-dimethylguanidine], where the note is “PCR array, pooled samples”, the “expression of genes involved in ECM remodeling (including MMPs) and EMT” value was “reduced the expression”. Further, for the setting “Western blot”, the “E-cadherin, protein expression” value is given as “increased”; the “EMT marker vimentin, protein expression” value is “decreased”; the “activation of metabolic pathways in tumors” value is “did not affect the activation of metabolic pathways”; the “expression of the autophagy marker L3CB” value was “unchanged”. Moreover, the “reduction of metalloproteinase 9 (MMP9) protein” value (Western blot, metformin 300 mg/Kg) was 70%. Further, the “MMP activity in tumors” value (compared to control mice) was “decreased”. Under setting [1], the “TAM levels lower with metformin treatment (F4/80)” value is 60%; the “activation of STAT3 in whole tumors” value is on record as “decreased activation of STAT3”; the “expression of IL-1β and CXCL-1 in tumors (multiplex protein array)” value is “reduced the expression of IL-1β and CXCL-1”. Also, under setting [2], the “decrease of percentage of activated (αSMA) PSCs that co-express HA” value stood at 58%, the “decrease of percentage of activated (αSMA) PSCs that co-express collagen-I” value is listed as 38% and the “expression of AT1 in tumors (Western blot)” value is “reduce the expression of AT1”. Besides, under setting [3], the “reduced expression of HA” value is given as 64% and the “reduced expression of collagen-I” value is on record as 35%. For the same compound, under “tumor-bearing mice”, the body weight result is “no change in body weight”.
